Assay results as given in patent publication US20110098295A1, “METHODS OF TREATING ANXIETY, ITCHING AND PSYCHIATRIC DISORDERS” (priority 2009, published 2011).

Experiments:
wild-type mice = assay: Open field test, animal model of behavioral anxiety; format: in vivo; design: anti-anxiety effects in the open field test: dose or concentration left out as unconfirmed
Source text: Animals were placed in the open field immediately after an IP injection. […] B) Mice injected with AC8 inhibitor (filled circles) traveled more than control mice injected with saline (open circles). *P<0.05
A round, green, plastic tub with diameter 43.5 cm was used to create an open arena for the mouse to travel. The floor was made of clear Plexiglas. Each trial consisted of exposing the mouse to a bright light (685 lux) in the arena for the first minute, followed immediately by exposing the mouse only to dim light (1 lux) for another minute. The mouse's movements were captured using video camera tracking software (Ethovision, Noldus Va.) and the distance from the border of the arena, the distance from the centre of the arena, and the total distance traveled were measured. The percent difference in these factors between bright and dim light periods were also calculated. After each 2 min testing session, the mouse was removed and placed back in its home cage and the arena was cleaned with 70% ethanol solution.

[1] = biological target: T1, adenylyl cyclase subtype 5 (Homo sapiens, UniProt O95622); assay: Biochemical screening test, AC5 transiently expressed in HEK293 cells; format: cell-based; settings: read-out: Percent Inhibition AC5
T1 construct: expressed in transfected cells; host or cells: HEK293 (transient, 48 h)
Description: (§1) For AC8 expression vector pcDNA3-AC1 transfection, HEK293 cells were plated onto 60-mm-diameter dishes at a density of 1×10^6 per plate, grown overnight and transfected with pcDNA3-AC1 (0.8 μg DNA per plate) by Lipofectamine 2000 (Invitrogen). Stable transfected clones were selected in culture media containing 0.8 mg/ml G418 (Invitrogen, CA) and maintained in this media. For transient expression of other AC isoforms in HEK293 cells, HEK293 cells were plated in 96 well tissue culture dishes and transfected with plasmids for AC5, respectively, experiments were carried out at 48 h after transfection.
(§2) The HEK293 cells expressing ACs were harvested and lysed in 0.1 M HCl after different treatments. Direct cAMP measurements were performed using the direct cAMP enzyme immunoassay kit (Assay Designs, MI) and optical density values were measured at 405 nm by the microplate reader. Phosphodiesterase was inhibited by the addition of 1 mM 3-isobutyl-1 methylxanthine (Sigma, Mo.) to cultures.
The HEK293 cells were subcultured into 96-well plates in the absence of antibiotics and grown overnight and transfected with the pGL3-CRE-firefly luciferase and pGL3-CMV-Renilla luciferase constructs (0.25 μg DNA per well) by Lipofectamine 2000 reagent. […] Relative light units were measured using a SIRIUS luminometer.

mice = assay: Behavioral itching test (scratching induced by intradermal compound 48/80); format: in vivo
Source text: Data are presented as mean±SEM.
Mutant KO mice and littermate wild-type mice were used in the behaviour experiments. Mice were shaved at the back of the neck where intradermal injections of compound 48/80, which releases histamine from the mast cells, were then given.

[2] = system: adenylyl cyclase subtype 8; assay: Biochemical screening test for AC8 inhibitors (cAMP assay in HEK293 cells expressing ACs); format: cell-based; settings: 100 μM
Description: as §1, §2
The HEK293 cells were subcultured into 96-well plates in the absence of antibiotics and grown overnight and transfected with the pGL3-CRE-firefly luciferase and pGL3-CMV-Renilla luciferase constructs (0.25 μg DNA per well) by Lipofectamine 2000 reagent. The transfected cells were incubated overnight, and media were changed to DMEM containing 10% fetal bovine serum. After 48 h, the cells were treated with 10 μM forskolin, 10 μM A23187 and 2 mM CaCl2, or a combination of 10 μM forskolin, 10 μM A23187 and 2 mM CaCl2, in the absence or presence of each chemical tested at the concentration of 100 μM. At the end of 6 hours, incubation cells were harvested and luciferase activity was assayed by Dual-Luciferase Reporter Assay System (Promega). Relative light units were measured using a SIRIUS luminometer.
A set of biochemical screening tests were carried out to search for potential selective AC8 inhibitors. cAMP assay, gene-activation (pCREB) assay in AC8 expressed cell lines, as well as integrative physiological experiments were employed to screen for potential AC8 inhibitors. The effect of Compound A and B on AC8 was determined.

T1 sequence (O95622 whole entry): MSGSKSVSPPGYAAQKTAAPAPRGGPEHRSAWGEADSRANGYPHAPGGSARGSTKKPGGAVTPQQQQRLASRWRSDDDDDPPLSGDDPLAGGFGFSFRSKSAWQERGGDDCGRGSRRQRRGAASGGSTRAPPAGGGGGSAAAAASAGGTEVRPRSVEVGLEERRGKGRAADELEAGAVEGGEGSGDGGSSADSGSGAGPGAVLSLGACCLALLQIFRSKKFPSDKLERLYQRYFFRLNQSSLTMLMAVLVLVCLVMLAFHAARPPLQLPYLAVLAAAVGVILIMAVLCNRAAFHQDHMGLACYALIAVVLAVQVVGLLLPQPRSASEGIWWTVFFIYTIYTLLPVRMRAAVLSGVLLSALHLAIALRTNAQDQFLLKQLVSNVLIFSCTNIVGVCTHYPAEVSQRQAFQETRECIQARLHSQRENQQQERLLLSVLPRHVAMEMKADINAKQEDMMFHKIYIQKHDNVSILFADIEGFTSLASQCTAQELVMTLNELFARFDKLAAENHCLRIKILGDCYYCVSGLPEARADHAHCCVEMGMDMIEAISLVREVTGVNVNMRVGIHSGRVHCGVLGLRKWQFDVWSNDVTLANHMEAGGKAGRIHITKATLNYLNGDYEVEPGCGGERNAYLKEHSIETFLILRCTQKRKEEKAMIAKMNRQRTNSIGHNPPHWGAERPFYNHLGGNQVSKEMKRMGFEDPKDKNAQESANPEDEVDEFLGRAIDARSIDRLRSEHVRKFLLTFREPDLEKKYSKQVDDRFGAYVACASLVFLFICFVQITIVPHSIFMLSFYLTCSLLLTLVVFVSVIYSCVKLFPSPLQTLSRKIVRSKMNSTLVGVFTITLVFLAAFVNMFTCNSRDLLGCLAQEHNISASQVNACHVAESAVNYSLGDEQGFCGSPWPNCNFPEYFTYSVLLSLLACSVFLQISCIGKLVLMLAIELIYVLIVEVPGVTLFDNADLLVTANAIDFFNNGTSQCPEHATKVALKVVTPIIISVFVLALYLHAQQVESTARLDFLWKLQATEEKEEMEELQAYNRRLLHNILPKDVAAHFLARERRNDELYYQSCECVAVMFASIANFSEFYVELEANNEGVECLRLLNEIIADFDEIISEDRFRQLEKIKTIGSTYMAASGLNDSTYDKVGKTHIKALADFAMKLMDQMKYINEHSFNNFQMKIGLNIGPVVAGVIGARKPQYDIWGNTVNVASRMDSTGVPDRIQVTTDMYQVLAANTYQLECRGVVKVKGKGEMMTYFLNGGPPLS

SMILES | ambulatory counts in open field (wild-type mice; 5 mg/kg, i.p., placed in open field immediately after injection, vs saline, n=6, P<0.05) | distance traveled in open field (wild-type mice; 5 mg/kg, i.p., vs saline, P<0.05) | anti-anxiety effects in the open field test (wild-type mice; systemic injection, n=7 mice) | inhibition at 100 µM [1] [%] | total scratching responses induced by intradermal compound 48/80 (100 μg/50 μl) (mice; 5 mg/kg i.p., n=6 mice vs wild-type mice n=7, P<0.05) | anti-itching effects in the itching test (mice; systemic injection 5 mg/kg) | Percent Inhibition AC8 [2] | inhibition of AC8 activity [2]
Cc1ccc(OCCn2c(S)nc3c(N)ncnc32)cc1 [Compound A, 6-amino-9-(2-p-tolyloxy-ethyl)-9H-purine-8-thiol] | significantly more ambulatory counts | traveled more | significant anti-anxiety effects | 25 ± 4 | significantly reduced | significant anti-itching effects | 88 ± 2% inhibition | significant inhibition
c1nc(N2CCOCC2)c2nc[nH]c2n1 [Compound B, 4-(9H-purin-6-yl)morpholine] |  |  |  |  |  |  | 86 ± 2% | significant inhibition
